{"source": "patent US10294202B2", "about": "“Pyrrolidinones as herbicides” (FMC Corporation, priority 2013, dated 2019)", "key": {"barnyardgrass [1]": {"test_system": "barnyardgrass", "test": "Test B flooded paddy test", "type": "in vivo, Echinochloa crus-galli", "details": "500 g ai/ha, Flood; scale of 0 to 100 where 0 is no effect and 100 is complete control", "method_in_brief": "(§1)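 Visual ratings from 0, meaning no effect, up to 100, meaning complete control, were made by comparison with untreated controls 13 to 15 days after treatment. Test compounds went straight into floodwater standing 3 cm over the soil of pots holding 2-leaf seedlings.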"}, "ducksalad": {"test_system": "ducksalad", "test": "Test B flooded paddy test", "type": "in vivo, Heteranthera limosa", "details": "500 g ai/ha, Flood; scale of 0 to 100 where 0 is no effect and 100 is complete control", "method_in_brief": "as §1"}, "ragweed": {"test_system": "ragweed", "test": "Test C pre-/postemergence herbicide test", "type": "in vivo, Ambrosia elatior", "method_in_brief": "(§2)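 Plants grown and held in a greenhouse for 13 to 15 days post-spray, then rated 0–100 by visual comparison with controls. Pre treatments targeted seeds in loam and sand; post treatments targeted 1- to 4-leaf plants in peat-based potting medium.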"}, "oat, wild": {"test_system": "oat, wild", "test": "Test C pre-/postemergence herbicide test", "type": "in vivo, Avena fatua", "details": "Postemergence", "method_in_brief": "as §2"}, "barnyardgrass [2]": {"test_system": "barnyardgrass", "test": "Test C pre-/postemergence herbicide test", "type": "in vivo, Echinochloa crus-galli", "method_in_brief": "as §2"}, "wheat (winter wheat)": {"test_system": "wheat (winter wheat)", "test": "Test C pre-/postemergence herbicide test", "type": "in vivo, Triticum aestivum", "method_in_brief": "as §2"}, "lambsquarters": {"test_system": "lambsquarters", "test": "Test C pre-/postemergence herbicide test", "type": "in vivo, Chenopodium album", "method_in_brief": "as §2"}, "corn": {"test_system": "corn", "test": "Test C pre-/postemergence herbicide test", "type": "in vivo, Zea mays", "method_in_brief": "as §2"}, "morningglory": {"test_system": "morningglory", "test": "Test C pre-/postemergence herbicide test", "type": "in vivo, Ipomoea coccinea", "method_in_brief": "as §2"}, "ryegrass, Italian": {"test_system": "ryegrass, Italian", "test": "Test C pre-/postemergence herbicide test", "type": "in vivo, Lolium multiflorum", "method_in_brief": "as §2"}, "pigweed": {"test_system": "pigweed", "test": "Test C pre-/postemergence herbicide test", "type": "in vivo, Amaranthus retroflexus", "method_in_brief": "as §2"}, "sedge, umbrella": {"test_system": "sedge, umbrella", "test": "Test B flooded paddy test", "type": "in vivo, Cyperus difformis", "details": "500 g ai/ha, Flood; scale of 0 to 100 where 0 is no effect and 100 is complete control", "method_in_brief": "as §1"}, "waterhemp": {"test_system": "waterhemp", "test": "Test C pre-/postemergence herbicide test", "type": "in vivo, Amaranthus rudis", "method_in_brief": "as §2"}, "soybean": {"test_system": "soybean", "test": "Test C pre-/postemergence herbicide test", "type": "in vivo, Glycine max", "method_in_brief": "as §2"}, "galium": {"test_system": "galium", "test": "Test C pre-/postemergence herbicide test", "type": "in vivo, Galium aparine", "method_in_brief": "as §2"}, "[3]": {"details": "Postemergence, 31 g ai/ha, scale 0 to 100 (0 no effect, 100 complete control)"}, "[4]": {"details": "Postemergence, 62 g ai/ha, scale 0 (no effect) to 100 (complete control)"}, "[5]": {"details": "Postemergence, 125 g ai/ha, scale 0 to 100 (0 no effect, 100 complete control)"}, "[6]": {"details": "Postemergence, 250 g ai/ha, scale 0 to 100 (0 no effect, 100 complete control)"}, "[7]": {"details": "Preemergence, 62 g ai/ha, scale 0 to 100 (0 no effect, 100 complete control)"}, "[8]": {"details": "Preemergence, 125 g ai/ha, scale 0 to 100"}, "[9]": {"details": "Preemergence, 31 g ai/ha, scale 0 to 100, 0 is no effect and 100 is complete control"}}}
{"smiles": "O=C1NCC(c2cccc(Br)c2)C1C(=O)Nc1cccc(F)c1F", "note": "(stereo not drawn) [Compound 309]", "values": [{"measurement": "Plant response rating, Barnyardgrass", "setting": "barnyardgrass [1]", "value": 65}, {"measurement": "Plant response rating, Ducksalad", "setting": "ducksalad", "value": 100}, {"measurement": "Plant response rating, Ragweed", "setting": "ragweed; [3]", "value": 0}, {"measurement": "Plant response rating, Ragweed", "setting": "ragweed; [4]", "value": 0}, {"measurement": "Plant response rating, Ragweed", "setting": "ragweed; [5]", "value": 35}, {"measurement": "Plant response rating, Ragweed", "setting": "ragweed; [6]", "value": 40}, {"measurement": "Ragweed plant response rating", "setting": "ragweed; [7]", "value": 10}, {"measurement": "Plant response rating, Ragweed", "setting": "ragweed; [8]", "value": 25}, {"measurement": "Plant response rating (scale of 0 to 100), Ragweed", "setting": "ragweed; Preemergence, 250 g ai/ha", "value": 65}, {"measurement": "Plant response rating, Oat, Wild", "setting": "oat, wild; 31 g ai/ha, scale 0 to 100 (0 no effect, 100 complete control)", "value": 0}, {"measurement": "Plant response rating, Oat, Wild", "setting": "oat, wild; 62 g ai/ha, scale 0 (no effect) to 100 (complete control)", "value": 0}, {"measurement": "Plant response rating, Oat, Wild", "setting": "oat, wild; 125 g ai/ha, scale 0 to 100 (0 no effect, 100 complete control)", "value": 0}, {"measurement": "Plant response rating, Oat, Wild", "setting": "oat, wild; 250 g ai/ha, scale 0 to 100 (0 no effect, 100 complete control)", "value": 0}, {"measurement": "Plant response rating, Barnyardgrass", "setting": "barnyardgrass [2]; [3]", "value": 0}, {"measurement": "Plant response rating, Barnyardgrass", "setting": "barnyardgrass [2]; [4]", "value": 15}, {"measurement": "Plant response rating, Barnyardgrass", "setting": "barnyardgrass [2]; [5]", "value": 55}, {"measurement": "Plant response rating, Barnyardgrass", "setting": "barnyardgrass [2]; [6]", "value": 60}, {"measurement": "Barnyardgrass plant response rating", "setting": "barnyardgrass [2]; [9]", "value": 60}, {"measurement": "Barnyardgrass plant response rating", "setting": "barnyardgrass [2]; [7]", "value": 90}, {"measurement": "Plant response rating, Barnyardgrass", "setting": "barnyardgrass [2]; Preemergence, 125 g ai/ha, scale 0 to 100 (0 no effect, 100 complete control)", "value": 90}, {"measurement": "Plant response rating (scale of 0 to 100; 0 is no effect, 100 is complete control), Barnyardgrass", "setting": "barnyardgrass [2]; Preemergence, 250 g ai/ha", "value": 95}, {"measurement": "Plant response rating, Wheat", "setting": "wheat (winter wheat); [3]", "value": 0}, {"measurement": "Plant response rating, Wheat", "setting": "wheat (winter wheat); [4]", "value": 0}, {"measurement": "Plant response rating, Wheat", "setting": "wheat (winter wheat); [5]", "value": 0}, {"measurement": "Plant response rating, Wheat", "setting": "wheat (winter wheat); [6]", "value": 0}, {"measurement": "Wheat plant response rating", "setting": "wheat (winter wheat); [7]", "value": 0}, {"measurement": "Plant response rating, Wheat", "setting": "wheat (winter wheat); [8]", "value": 0}, {"measurement": "Plant response rating (scale of 0 to 100), Wheat", "setting": "wheat (winter wheat); Preemergence, 250 g ai/ha", "value": 0}, {"measurement": "Plant response rating, Lambsquarters", "setting": "lambsquarters; [3]", "value": 10}, {"measurement": "Plant response rating, Lambsquarters", "setting": "lambsquarters; [4]", "value": 65}, {"measurement": "Plant response rating, Lambsquarters", "setting": "lambsquarters; [5]", "value": 65}, {"measurement": "Plant response rating, Lambsquarters", "setting": "lambsquarters; [6]", "value": 70}, {"measurement": "Lambsquarters plant response rating", "setting": "lambsquarters; [9]", "value": 0}, {"measurement": "Lambsquarters plant response rating", "setting": "lambsquarters; [7]", "value": 0}, {"measurement": "Plant response rating, Lambsquarters", "setting": "lambsquarters; [8]", "value": 30}, {"measurement": "Plant response rating (scale of 0 to 100), Lambsquarters", "setting": "lambsquarters; Preemergence, 250 g ai/ha", "value": 50}, {"measurement": "Plant response rating, Corn", "setting": "corn; [3]", "value": 0}, {"measurement": "Plant response rating, Corn", "setting": "corn; [4]", "value": 0}, {"measurement": "Plant response rating, Corn", "setting": "corn; [5]", "value": 0}, {"measurement": "Plant response rating, Corn", "setting": "corn; [6]", "value": 20}, {"measurement": "Corn plant response rating", "setting": "corn; [9]", "value": 0}, {"measurement": "Corn plant response rating", "setting": "corn; [7]", "value": 0}, {"measurement": "Plant response rating, Corn", "setting": "corn; [8]", "value": 65}, {"measurement": "Plant response rating (scale of 0 to 100), Corn", "setting": "corn; Preemergence, 250 g ai/ha", "value": 70}, {"measurement": "Plant response rating, Morningglory", "setting": "morningglory; [3]", "value": 60}, {"measurement": "Plant response rating, Morningglory", "setting": "morningglory; [4]", "value": 10}, {"measurement": "Plant response rating, Morningglory", "setting": "morningglory; [5]", "value": 25}, {"measurement": "Plant response rating, Morningglory", "setting": "morningglory; [6]", "value": 10}, {"measurement": "Morningglory plant response rating", "setting": "morningglory; [9]", "value": 0}, {"measurement": "Morningglory plant response rating", "setting": "morningglory; [7]", "value": 0}, {"measurement": "Plant response rating, Morningglory", "setting": "morningglory; [8]", "value": 10}, {"measurement": "Plant response rating (scale of 0 to 100), Morningglory", "setting": "morningglory; Preemergence, 250 g ai/ha", "value": 10}, {"measurement": "Plant response rating, Ryegrass, Italian", "setting": "ryegrass, Italian; [3]", "value": 0}, {"measurement": "Plant response rating, Ryegrass, Italian", "setting": "ryegrass, Italian; [4]", "value": 0}, {"measurement": "Plant response rating, Ryegrass, Italian", "setting": "ryegrass, Italian; [5]", "value": 0}, {"measurement": "Plant response rating, Ryegrass, Italian", "setting": "ryegrass, Italian; [6]", "value": 5}, {"measurement": "Ryegrass, Italian plant response rating", "setting": "ryegrass, Italian; [7]", "value": 0}, {"measurement": "Plant response rating, Ryegrass, Italian", "setting": "ryegrass, Italian; [8]", "value": 0}, {"measurement": "Plant response rating (scale of 0 to 100), Ryegrass, Italian", "setting": "ryegrass, Italian; Preemergence, 250 g ai/ha", "value": 10}, {"measurement": "Plant response rating, Pigweed", "setting": "pigweed; [3]", "value": 30}, {"measurement": "Plant response rating, Pigweed", "setting": "pigweed; [4]", "value": 50}, {"measurement": "Plant response rating, Pigweed", "setting": "pigweed; [5]", "value": 50}, {"measurement": "Plant response rating, Pigweed", "setting": "pigweed; [6]", "value": 60}, {"measurement": "Pigweed plant response rating", "setting": "pigweed; [9]", "value": 0}, {"measurement": "Pigweed plant response rating", "setting": "pigweed; [7]", "value": 0}, {"measurement": "Plant response rating, Pigweed", "setting": "pigweed; [8]", "value": 0}, {"measurement": "Plant response rating (scale of 0 to 100), Pigweed", "setting": "pigweed; Preemergence, 250 g ai/ha", "value": 40}, {"measurement": "Plant response rating, Sedge, Umbrella", "setting": "sedge, umbrella", "value": 0}, {"measurement": "Plant response rating, Waterhemp", "setting": "waterhemp; [3]", "value": 0}, {"measurement": "Plant response rating, Waterhemp", "setting": "waterhemp; [4]", "value": 5}, {"measurement": "Plant response rating, Waterhemp", "setting": "waterhemp; [5]", "value": 10}, {"measurement": "Plant response rating, Waterhemp", "setting": "waterhemp; [6]", "value": 10}, {"measurement": "Waterhemp plant response rating", "setting": "waterhemp; [7]", "value": 0}, {"measurement": "Plant response rating, Waterhemp", "setting": "waterhemp; [8]", "value": 30}, {"measurement": "Plant response rating (scale of 0 to 100), Waterhemp", "setting": "waterhemp; Preemergence, 250 g ai/ha", "value": 40}, {"measurement": "Plant response rating, Soybean", "setting": "soybean; [3]", "value": 0}, {"measurement": "Plant response rating, Soybean", "setting": "soybean; [4]", "value": 0}, {"measurement": "Plant response rating, Soybean", "setting": "soybean; [5]", "value": 15}, {"measurement": "Plant response rating, Soybean", "setting": "soybean; [6]", "value": 0}, {"measurement": "Soybean plant response rating", "setting": "soybean; [7]", "value": 0}, {"measurement": "Plant response rating, Soybean", "setting": "soybean; [8]", "value": 0}, {"measurement": "Plant response rating (scale of 0 to 100), Soybean", "setting": "soybean; Preemergence, 250 g ai/ha", "value": 0}, {"measurement": "Plant response rating, Galium", "setting": "galium; [3]", "value": 30}, {"measurement": "Plant response rating, Galium", "setting": "galium; [4]", "value": 40}, {"measurement": "Plant response rating, Galium", "setting": "galium; [5]", "value": 55}, {"measurement": "Plant response rating, Galium", "setting": "galium; [6]", "value": 60}, {"measurement": "Galium plant response rating", "setting": "galium; [9]", "value": 0}, {"measurement": "Galium plant response rating", "setting": "galium; [7]", "value": 0}, {"measurement": "Plant response rating, Galium", "setting": "galium; [8]", "value": 75}, {"measurement": "Plant response rating (scale of 0 to 100), Galium", "setting": "galium; Preemergence, 250 g ai/ha", "value": 85}]}
